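The compound was tested at five concentrations on cells cultured in 96-well plates, with a 48-hour exposure period. GI50: concentration for 50% inhibition of growth.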 The source made the active and inactive calls. No stated cut-off is given here; in the data, active = GI50 up to about 1.1 µM and inactive = higher.
Experiments:
Assay in all cases: DTP human tumour cell line panel, 48 h
M14 = system: M14
SW-620 = system: SW-620
U-251 = system: U-251
TK-10 = system: TK-10
Hs-578T = system: Hs-578T
HOP-92 = system: HOP-92
OVCAR-3 = system: OVCAR-3
CCRF-CEM = system: CCRF-CEM
SR = system: SR
SF-539 = system: SF-539
SF-268 = system: SF-268
HL-60 = system: HL-60
SK-MEL-28 = system: SK-MEL-28
UACC-62 = system: UACC-62
MCF7 = system: MCF7
OVCAR-5 = system: OVCAR-5
ACHN = system: ACHN
SK-OV-3 = system: SK-OV-3
IGROV-1 = system: IGROV-1
Malme-3M = system: Malme-3M

| SMILES | GI50 (M14) | GI50 (SW-620) | GI50 (U-251) | GI50 (TK-10) | GI50 (Hs-578T) | GI50 (HOP-92) | GI50 (OVCAR-3) | GI50 (CCRF-CEM) | GI50 (SR) | GI50 (SF-539) | GI50 (SF-268) | GI50 (HL-60) | GI50 (SK-MEL-28) | GI50 (UACC-62) | GI50 (MCF7) | GI50 (OVCAR-5) | GI50 (ACHN) | GI50 (SK-OV-3) | GI50 (IGROV-1) | GI50 (Malme-3M) |
| --- | --- | --- | --- | --- | --- | --- | --- | --- | --- | --- | --- | --- | --- | --- | --- | --- | --- | --- | --- | --- |
| CC(C)=CCc1c(O)cc2oc(-c3ccc(O)cc3O)cc(=O)c2c1O | 27.9 µM (inactive) | 28 µM (inactive) | 32.2 µM (inactive) | 22 µM (inactive) | 42.8 µM (inactive) | 32.4 µM (inactive) | 21.8 µM (inactive) | 8.11 µM (inactive) | 18.2 µM (inactive) | 27.4 µM (inactive) | 38.8 µM (inactive) | 20.1 µM (inactive) | 31.6 µM (inactive) | 18.1 µM (inactive) | 24.4 µM (inactive) | 31 µM (inactive) | 26.9 µM (inactive) | 36 µM (inactive) | 33.5 µM (inactive) | 25.3 µM (inactive) |
| O=C1c2ccccc2C(=O)c2c1ccc1nc3c(nc21)-c1c2ccccc2cc2cccc-3c12 | 32.4 µM (inactive) | > 63.1 µM (inactive) | 31.3 µM (inactive) | 52.4 µM (inactive) | 13.7 µM (inactive) | > 73.8 µM (inactive) | 43.8 µM (inactive) | 5.33 µM (inactive) | 5.27 µM (inactive) | 21.4 µM (inactive) | 29.4 µM (inactive) | 10 µM (inactive) | > 92.7 µM (inactive) | 26.5 µM (inactive) | 17.6 µM (inactive) | > 100 µM (inactive) | 16.1 µM (inactive) | 41.1 µM (inactive) | 9.16 µM (inactive) | 51.9 µM (inactive) |
| C[C@]12CC[C@H](O)CC1=CC[C@@H]1C2CC[C@]2(C)c3nn(-c4ccc(F)cc4)nc3CC12 (stereo not given in full) | 32.6 µM (inactive) | > 100 µM (inactive) | 95.5 µM (inactive) | > 100 µM (inactive) | 39.3 µM (inactive) | > 100 µM (inactive) | > 100 µM (inactive) | 58.1 µM (inactive) | > 100 µM (inactive) | 18.2 µM (inactive) | 73.8 µM (inactive) | 17.5 µM (inactive) | > 100 µM (inactive) | 43.7 µM (inactive) | > 100 µM (inactive) | 67.1 µM (inactive) | 33.1 µM (inactive) | 39.4 µM (inactive) | > 100 µM (inactive) | 74 µM (inactive) |
| CCC/C(Cl)=N\OC(=O)Nc1ccc(Br)cc1 | 12 µM (inactive) | 2.36 µM (inactive) | 16.4 µM (inactive) | 14.2 µM (inactive) | 21.1 µM (inactive) | 3.33 µM (inactive) | 6.22 µM (inactive) | 1.78 µM (inactive) | 5.68 µM (inactive) | 17.5 µM (inactive) | 17.7 µM (inactive) | 1.99 µM (inactive) | 18.2 µM (inactive) | 18.9 µM (inactive) | 6.47 µM (inactive) | 13.9 µM (inactive) | 5.05 µM (inactive) | 16.8 µM (inactive) | 12.8 µM (inactive) | 5.73 µM (inactive) |
| CC1=NN(c2ccccc2)C(=O)C1/N=N/c1ccc([As](=O)(O)O)c(O)c1 (stereo not given) | > 100 µM (inactive) | > 100 µM (inactive) | > 100 µM (inactive) | > 100 µM (inactive) | > 100 µM (inactive) | > 100 µM (inactive) | > 100 µM (inactive) | 25.4 µM (inactive) | > 100 µM (inactive) | > 100 µM (inactive) | > 100 µM (inactive) | 87.1 µM (inactive) | > 100 µM (inactive) | > 100 µM (inactive) | > 100 µM (inactive) | > 100 µM (inactive) | > 100 µM (inactive) | > 100 µM (inactive) | > 100 µM (inactive) | > 100 µM (inactive) |
| Cc1nn(C(=O)c2ccccc2O)c2c1C(c1ccc(O)cc1O)SC(=N)N2 (stereo not given) | 3.61 µM (inactive) | 5.04 µM (inactive) | 5.58 µM (inactive) | > 10 µM (inactive) | 1.91 µM (inactive) | 3.67 µM (inactive) | 2.96 µM (inactive) | 3.05 µM (inactive) | 6.67 µM (inactive) | 3.77 µM (inactive) | 4.75 µM (inactive) | 5.52 µM (inactive) | 8.91 µM (inactive) | 1.89 µM (inactive) | 0.472 µM (active) | 1.04 µM (active) | 4.75 µM (inactive) | 3.6 µM (inactive) | 3.48 µM (inactive) | > 10 µM (inactive) |
| O=C(c1ccccc1)N(C(=O)c1ccccc1)c1nc(SCc2ccccc2)ns1 | 34.4 µM (inactive) | 37.2 µM (inactive) | 19.2 µM (inactive) | 25.9 µM (inactive) | 26.1 µM (inactive) | 26.7 µM (inactive) | 22.3 µM (inactive) | 25.6 µM (inactive) | 22.2 µM (inactive) | 22.3 µM (inactive) | 30.8 µM (inactive) | 21.8 µM (inactive) | 30.8 µM (inactive) | 17.1 µM (inactive) | 30.5 µM (inactive) | 33.7 µM (inactive) | 41.6 µM (inactive) | 43.2 µM (inactive) | 36.9 µM (inactive) | 22.7 µM (inactive) |
| CC1=Nn2c(nc3sc4c(c3c2=O)CCCC4)SC1 | > 100 µM (inactive) | > 57.8 µM (inactive) | 45.5 µM (inactive) | 53.7 µM (inactive) | > 90.4 µM (inactive) | 36.1 µM (inactive) | 76 µM (inactive) | 35.3 µM (inactive) | 57 µM (inactive) | > 48.6 µM (inactive) | > 58.1 µM (inactive) | 34.8 µM (inactive) | > 100 µM (inactive) | 76.4 µM (inactive) | > 77.6 µM (inactive) | > 100 µM (inactive) | > 51.6 µM (inactive) | > 100 µM (inactive) | > 76.4 µM (inactive) | > 94.2 µM (inactive) |
| CC(=O)OCC12C(OC(C)=O)C(=O)C3C(OC(C)=O)C14OC3(C)COC(=O)c1cccnc1C(C)C(C)C(=O)OC(C(OC(C)=O)C2OC(C)=O)C4(C)O (stereo not given) | > 100 µM (inactive) | > 100 µM (inactive) | > 100 µM (inactive) | > 100 µM (inactive) | > 100 µM (inactive) | > 100 µM (inactive) | > 100 µM (inactive) | > 100 µM (inactive) | 42.6 µM (inactive) | > 100 µM (inactive) | > 100 µM (inactive) | > 100 µM (inactive) | > 100 µM (inactive) | > 100 µM (inactive) | > 100 µM (inactive) | > 100 µM (inactive) | > 100 µM (inactive) | > 100 µM (inactive) | > 100 µM (inactive) | > 100 µM (inactive) |
| Cc1ccc(SCC(CF)OC(C)n2cnc3c(Cl)nc(N)nc32)cc1 (stereo not given) | > 100 µM (inactive) | > 100 µM (inactive) | > 100 µM (inactive) | > 100 µM (inactive) | > 100 µM (inactive) | 59.8 µM (inactive) | 85.7 µM (inactive) | 81.1 µM (inactive) | 40 µM (inactive) | > 100 µM (inactive) | 96.8 µM (inactive) | 22.7 µM (inactive) | > 100 µM (inactive) | > 100 µM (inactive) | 27.2 µM (inactive) | > 100 µM (inactive) | 35.2 µM (inactive) | 37.2 µM (inactive) | > 100 µM (inactive) | 93.5 µM (inactive) |
| Cc1cc(=O)[nH]c2cc(NC(=O)C(CCCNC(=N)N)NC(=O)OCc3ccccc3)ccc12 (stereo not given) | > 100 µM (inactive) | > 100 µM (inactive) | > 100 µM (inactive) | > 100 µM (inactive) | > 100 µM (inactive) | 78.5 µM (inactive) | > 100 µM (inactive) | > 100 µM (inactive) | > 100 µM (inactive) | > 100 µM (inactive) | > 100 µM (inactive) | > 100 µM (inactive) | > 100 µM (inactive) | > 100 µM (inactive) | > 100 µM (inactive) | > 100 µM (inactive) | > 100 µM (inactive) | 4.28 µM (inactive) | > 100 µM (inactive) | > 100 µM (inactive) |
| Nc1ncnc2c1ncn2[C@@H]1O[C@H](COP(=O)(O)OP(=O)(O)OC[C@H]2O[C@@H](OCCCO)[C@H](O)[C@@H]2O)[C@@H](O)[C@H]1O | > 100 µM (inactive) | > 100 µM (inactive) | > 100 µM (inactive) | > 100 µM (inactive) | > 100 µM (inactive) | > 100 µM (inactive) | > 100 µM (inactive) | > 100 µM (inactive) | 44.8 µM (inactive) | > 100 µM (inactive) | > 100 µM (inactive) | > 100 µM (inactive) | > 100 µM (inactive) | > 100 µM (inactive) | > 100 µM (inactive) | > 100 µM (inactive) | > 100 µM (inactive) | > 100 µM (inactive) | > 100 µM (inactive) | > 100 µM (inactive) |
| Cc1cc(C)c2ccc(N3CCNCC3)nc2n1 | > 100 µM (inactive) | > 100 µM (inactive) | > 100 µM (inactive) | > 100 µM (inactive) | > 100 µM (inactive) | > 100 µM (inactive) | > 100 µM (inactive) | > 100 µM (inactive) | > 100 µM (inactive) | > 100 µM (inactive) | > 100 µM (inactive) | 55.7 µM (inactive) | > 100 µM (inactive) | > 100 µM (inactive) | > 100 µM (inactive) | > 100 µM (inactive) | > 100 µM (inactive) | > 100 µM (inactive) | > 100 µM (inactive) | > 100 µM (inactive) |

Reference: ChEMBL document CHEMBL1201862, “PubChem BioAssay data set” (2004)
